The structures appear in SMILES notation.

Test [1] addresses T1, ALK1 kinase (Homo sapiens (Human), UniProt P37023). The test is described as follows: ALK1 kinase assay (ProQinase protocol). The test is classed as biochemical. To be noted: ProQinase radiometric assay, casein, γ-33P-ATP. How it is done: B-1b. ALK1 Kinase Assay (ProQinase Protocol)
ALK1 (Invitrogen, Carlsbad, Calif., USA) kinase activity was measured at ProQinase GmbH (Freiburg, Germany) in a radiometric assay using γ-^33P-ATP and casein (Sigma, St. Louis, Mo., USA) as substrate in 96-well PerkinElmer FlashPlates™ (Boston, Mass., USA). The compounds were tested at 10 concentrations in the range of 1×10^−4 M to 3×10^−9 M in a total volume of 50 μl with a final DMSO concentration of 1% each. The assay components were mixed in the order: • 20 μl assay buffer (70 mM HEPES-NaOH, pH 7.5, 3 mM MgCl2, 3 mM MnCl2, 2 μM sodium orthovanadate, 1.2 mM DTT); • 5 μl γ-^33P-ATP (1.0 μM in water, approx. 6×10^5 cpm per well); • 5 μl test compound solution (in 10% DMSO); • […] (200 μg/ml, 1.0 μg/50 μl final concentration)/enzyme (4 μg/ml, 20 ng/50 μl=5.5 nM final concentration) solution (1:1 mixture).
The reaction mixtures were incubated at 30° C. for 60 minutes and stopped by adding 50 μl 2% (v/v) phosphoric acid. The plates were aspirated and washed twice with 200 μl 0.9% (w/v) sodium chloride. Incorporation of ^33Pi was determined with a microplate scintillation counter (Microbeta, Wallac). All assays were performed using a BecicmanCoulter/SAGIAN™ Core System.
Median values obtained from unspecific substrate binding of labelled. ATP were set as background level, while median values measured in the absence of any inhibitor were considered to reflect full activity of ALK1 kinase. The background activity (ba) was subtracted from the full activity (fa) value as well as from the values obtained from the test compound containing samples (test compound activity, tea). The residual activity in the latter was calculated as follows: residual activity (%)=100×[(tca−ba)/(fa−ba)]
The residual activities for each concentration and the compound IC50 values were calculated using Quattro Workflow V3.1.0 (Quattro Research GmbH, Munich, Germany). The fitting model for the IC50 determinations was “Sigmoidal response (variable slope)” with parameters “top” fixed at 100% and “bottom” at 0%. The fitting method used was a least-squares fit.

Test [2] relates to hSmad7 mRNA in BMP9-stimulated HUVEC. The test is described as follows: Smad7 target gene induction: HUVEC cell assay and TaqMan expression analysis. Format: cell-based, human. To be noted: Homo sapiens, 3 h, 1 ng/ml BMP9 for 3 h, Smad7 mRNA by TaqMan. On the procedure:
B-2b. Smad7 Target Gene Induction: HUVEC Cell Assay and TaqMan Expression Analysis
The in vitro potency of ALK1 inhibitors was tested in a cell-based assay. Bone morphogenetic protein 9 (BMP9) induces Smad7 mRNA expression in human vascular endothelial cells (HUVEC) via activation of ALK1.
1.5×10^4 passage 2 HUVECs (Lonza, Basel, Switzerland) per well were seeded in a 96-well plate in EBM-2 medium containing EGM-2 additives and growth factors (Lonza, CC-3156 and CC-4176). After 4 h, the medium was changed to EBM-2 with 0.2% fetal calf serum (FCS) and the cells were starved for 20 h in a humidified incubator at 37° C., 5% CO2. Test compounds were added at 11 different concentrations between 0 and 10 000 nM one hour prior to stimulation of the cells for 3 h with recombinant human BMP9 protein at 1 ng/ml (dissolved in 4 mM hydrochloric acid, 0.1% BSA at 10 μg/ml; R&D Systems, Minneapolis, Minn., USA, 3209BP). Medium was removed, and the cells were lysed in 100 μl RLT buffer (Qiagen, Hilden, Germany). RNA was isolated using the Qiagen RNeasy 96 Kit (order-No. 74182) according to manufacturer's instructions and eluted from the columns with 65 μl RNAse-free water. Reverse transcription for quantitative RT-PCR was carried out with the Omniscript Kit (Qiagen, 205113) in RNAse-free 96-well round-bottom plates. Per well, 6.8 μl of a reaction master mix containing 2 μl 10×RT-buffer, 2 μl dNTPs (5 mM each), 1.6 μl random primer N6 (125 μM), 0.25 μl Rnase Out (40 U/μl) and 1 μl Omniscript Reverse Transcriptase were added. After addition of 13.2 μl of the RNA/water mixture, plate contents were mixed, incubated for 1 h at 37° C. and the total volume adjusted to 100 μl in each well by addition of 80 μl RNAse-free water.
The quantification of human Smad7 mRNA was carried out on a TaqMan using the Eurogentec qPCR Mastermix Plus (RT-QP2X-03-075+; Cologne, Germany) and employing human L32 as housekeeping reference mRNA. Per qPCR reaction, 2.8 μl primer mix, 10 μl master mix, 2.2 μl water and 5 μl cDNA were added. Thermal cycling parameters were 2 min at 50° C., followed by 10 min at 95° C., followed by 40 cycles of melting at 95° C. for 15 sec and annealing/extending at 60° C. for 1 min.
Smad7 mRNA levels induced by 1 ng/ml BMP9 without the addition of any inhibitor were set at 100% induction, and % inhibition was calculated for each test compound with this value. For each test compound, every value was determined in quadruplicate. The IC50 values were determined using Microsoft Excel. The fitting method used was a weighted, unconstrained ML-fit.

Test [3] addresses T1, ALK1 kinase. Briefly: In vitro enzyme inhibition using scintillation of incorporated radio label (flashplate assay). The test is classed as biochemical. As to conditions: biotinylated α-casein, 33P-ATP, 500 nM ATP. How it is done:
B-1a. In Vitro Enzyme Inhibition Using Scintillation of Incorporated Radio Label (Flashplate Assay)
Test compounds diluted in DMSO are mixed with a suitable substrate/co-substrate (here: biotinylated α-casein and ^33P-ATP) in a corresponding assay buffer. Addition of the enzyme of interest (here: ALK1 kinase) starts the enzyme reaction. The enzyme-catalyzed incorporation of radio label into the substrate is measured via scintillation. Incorporated radio label is separated from free radio label via specific binding of the biotinylated substrate to strepavidin-coated microtiter plates (flashplates) and concomitant washing steps. The scintillation signal intensity (counts per minutes, cpm) is proportional to the enzyme activity. Enzyme inhibition results in a decreased signal intensity. IC50 values of the test compounds are determined by cpm-versus-[I] plots.
Reaction buffer contains 50 mM Tris pH 8.0 (Sigma), 1 mM MnCl2 (Sigma), 0.01% Nonidet P40 (Fluka), 0.5× Complete EDTA-free protease inhibitors (Roche; contains a mixture of several protease inhibitors for the inhibition of serine and cysteine (but not metallo-) proteases; 1 tablet contains protease inhibitors sufficient for a 50 ml cell extract; the concentration used in this assay corresponds to 1 tablet in 100 ml).
• 1.) Stop solution: Dulbecco's PBS (PAA, Pasching, Austria), 25 mM EDTA (Sigma), 25 μM ATP (Roche), 0.05% Triton X-100 (Sigma); • 2.) Saturation buffer: Dulbecco's PBS (PAA, Pasching, Austria), 100 μM ATP (Roche), 0.2% Triton X-100 (Sigma); • 3.) Wash buffer: Dulbecco's PBS (PAA, Pasching, Austria). Enzyme Solution:
ALK1 (Invitrogen, Paisley, United Kingdom) stock solution (35.7 ng/μl) is diluted to 4 ng/μl; final concentration in the reaction is 1 ng/μl.
Dephosphorylated α-casein (Sigma) is biotinylated according to the manufacturer's protocol (Pierce, Bonn, Germany) resulting in a stock solution of 61.6 μM. Briefly, EZ-Link® Biotin reagent (sulfosuccinimidyl-6-(biotinamido)hexanoate; Pierce, Bonn, Germany) is added in equal molarity to α-casein and incubated on ice for 2 h. Afterwards, the biotin reagent is removed by dialysis (2×2 h and overnight).
A 100 mM solution of cold (unlabelled) ATP (Roche) is diluted 1:100 before each test. For the substrate mix, α-casein is diluted to 2.22 μM resulting in a final concentration of 1 μM α-casein in the reaction. Additionally, cold ATP is added to give a 1.11 μM solution which results in a final concentration of 500 nM in the reaction.
Radioactive ATP Solution:
The stock solution (9.25 MBq/25 μl of ^33P-ATP; Perkin Elmer, Rodgau, Germany) is diluted to 651.2 Bq/μl.
Compounds are dissolved in 100% DMSO (10 mM stock solution) and diluted to 2 mM. Further dilutions are made stepwise 1:3.16 in DMSO.
A volume of 9 μl substrate solution is provided into each well of a 384 well microliter plate (Greiner Bio-One, Solingen, Germany), 1 μl compound solution and 5 μl of the radioactive ATP solution are added. Enzyme reaction starts with addition of 5 μl of enzyme solution. The mixture is incubated for 60 minutes at room temperature and then stopped by addition of 10 μl stop solution. The 384 well microliter flashplates (Perkin Elmer, Rodgau, Germany) are saturated with 50 μl saturation buffer per well for at least 60 minutes. Subsequently, a volume of 20 μl is discarded and replaced with 20 μl of the stopped ALK1 reaction mixture. Binding of biotinylated substrate to the flashplate is allowed for by overnight incubation at room temperature. Bound substrate is separated from unbound components through repeated washing steps (3×50 μl washing buffer per well). Finally, 50 μl washing buffer is added, and the scintillation signal (cpm) is measured in a suitable counter (Perkin Elmer, Rodgau, Germany).

T1 sequence (P37023 22-503): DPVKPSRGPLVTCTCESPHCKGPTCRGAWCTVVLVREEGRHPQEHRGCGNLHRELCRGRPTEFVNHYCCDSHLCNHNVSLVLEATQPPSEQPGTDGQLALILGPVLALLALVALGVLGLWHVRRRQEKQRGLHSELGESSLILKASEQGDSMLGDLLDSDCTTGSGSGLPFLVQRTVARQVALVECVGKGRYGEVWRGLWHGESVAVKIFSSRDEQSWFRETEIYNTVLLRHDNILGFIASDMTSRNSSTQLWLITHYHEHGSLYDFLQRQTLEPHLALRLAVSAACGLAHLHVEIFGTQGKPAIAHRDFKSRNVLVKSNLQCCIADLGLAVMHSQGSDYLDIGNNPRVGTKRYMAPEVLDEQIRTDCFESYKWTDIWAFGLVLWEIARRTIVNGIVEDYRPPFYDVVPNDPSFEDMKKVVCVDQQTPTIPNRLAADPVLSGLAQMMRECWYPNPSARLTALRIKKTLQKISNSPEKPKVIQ

As to `CCc1cc(-c2cc(C3CCNC3)n3ncnc(N)c23)cc(F)c1CO` (racemic) [Example 37, rac-{4-[4-Amino-7-(pyrrolidin-3-yl)pyrrolo[2,1-f][1,2,4]triazin-5-yl]-2-ethyl-6-fluorophenyl}-methanol], the results for the IC50 (against ALK1 kinase [1]; in test [2]) were < 3 nM and 330 nM, respectively.

With `CCc1cc(-c2cc(C3CCCNC3)n3ncnc(N)c23)cc(F)c1CO` (racemic) [Example 38, rac-{4-[4-Amino-7-(piperidin-3-yl)pyrrolo[2,1-f][1,2,4]triazin-5-yl]-2-ethyl-6-fluorophenyl}-methanol], on ALK1 kinase [1], the 50% inhibitory concentration (IC50) was found to be 4 nM.

Consider `CCc1cc(-c2cc(C(O)C3CC3)n3ncnc(N)c23)cc(F)c1CO` (racemic) [Example 39, rac-{4-Amino-5-[3-ethyl-5-fluoro-4-(hydroxymethyl)phenyl]pyrrolo[2,1-f][1,2,4]triazin-7-yl}-(cyclopropyl)methanol], for which the IC50 came out at 5.7 nM against ALK1 kinase [1] and 500 nM in test [2].

Take `CCc1cc(-c2cc([C@H]3CC[C@H](O)CC3)n3ncnc(N)c23)cc(F)c1CO` [Example 28, trans-4-{4-Amino-5-[3-ethyl-5-fluoro-4-(hydroxymethyl)phenyl]pyrrolo[2,1-f][1,2,4]triazin-7-yl}-cyclohexanol]: the 50% inhibitory concentration (IC50) worked out at 124 nM on ALK1 kinase [1] and 170 nM against ALK1 kinase [3].

The values above are taken from patent US9040691B2, “Hydroxymethylaryl-substituted pyrrolotriazines as ALK1 inhibitors” (BAYER INTELLECTUAL PROPERTY GMBH, priority 2011, dated 2015).
